Where a SMILES comes first, the peptide text is derived from it.
How the values were obtained:
Settings in all cases: 10°C
[1] = biological target: T1, N-SH2 domain of PI3K, T33S variant (Homo sapiens, UniProt P27986, T354S); assay: Stopped-flow binding kinetics, N-SH2 T33S
T1 construct: made in house
Description: (§1) N-SH2 wild-type and all the site-directed variants were expressed and purified as described previously ([Visconti et al., 2019]). All the mutants were obtained using a QuickChange Lightning Site-Directed Mutagenesis kit (Agilent technologies), accordingly to manufacturer instructions. Peptides with sequence TNSEDNpYVPMNPG mimicking wild-type Gab2 and TNSEDNpYVPANPG mimicking the M457A variant of Gab2 were purchased from GenScript Biotech Corporation.
(§2) Binding kinetics experiments were performed using a single-mixing SX-18 stopped-flow instrument (Applied Photophysics); all binding experiments were conducted in 50 mM Hepes pH 7.4 300 mM NaCl at 10°C. Excitation was at 280 nm and emission was collected using a […] cut-off glass filter. Pseudo-first order binding experiments were performed mixing a constant concentration of dansylated Gab2_448–460 and Gab2_448–460 M457A (1 μM) vs. N-SH2 wt and its mutants at concentrations ranging from […]. For each N-SH2 concentration, usually 5 individual traces were averaged and in all cases the fluorescence time courses obtained was satisfactorily fitted by using a single exponential equation.
(§3) One of the aims of this study is to depict the molecular details of the interaction between the N-SH2 domain of PI3K and Gab2. A powerful strategy to achieve this goal relies on perturbing the system by producing conservative site-directed variants while monitoring the effect of mutations on the association and dissociation rate constants between the interacting partners (kon and koff respectively). Thus, we designed and successfully produced 21 site-directed variants of the N-SH2 domain and challenged them vs. a peptide mimicking the region of Gab2 ranging from residue 448–460 (Gab2_448–460), containing the pY-X-X-M motif that is specifically recognized by the N-SH2 domain ([Waksman et al., 1992]; [Songyang et al., 1993]). The choise of mutations was designed in analogy to phi-value analysis methodology in protein folding studies ([Fersht and Sato, 2004]). […] To monitor binding by fluorescence, a dansyl group was added at the N-terminus of the peptide. The binding reaction was monitored by stopped-flow experiments following the change in FRET signal, taking advantage of the two Trp residues on the N-SH2 domain in positions 12 and 14 as fluorescence donor and the dansyl group on Gab2_448–460 as acceptor. The experiments were performed in pseudo-first order conditions with Gab2_448–460 at fixed concentration of 1 μM rapidly mixed vs. large excess of N-SH2 wt and its variants, ranging from 4 to 14 μM, in buffer Hepes 50 mM, NaCl 300 mM, pH 7.4, at 10°C.
(§4) with kon being the slope of the line and koff the intercept with the y-axis. Since indirect calculation of koff obtained by extrapolation is associated with high experimental error, we performed displacement experiments to directly measure koff by challenging a pre-incubated complex of dansylated Gab2_448–460 and N-SH2 domain both at the concentration of 1 μM vs. a large excess of non-dansylated Gab2_448–460 (50 μM). Kinetic parameters extracted from data together with the calculated changes in activation and equilibrium free energies are reported in Table 1. Analysis of kinetic data highlights that T48S, L51A, and L59A variations cause a detectable decrease of the affinity of the domain for Gab2_448–460 of ∼10-fold, affecting both the kon and koff. […] Since L99 residue is part of the binding pocket, this dramatic effect on the binding affinity is expected.
(§5) SH2 domains bind ligands with a phosphorylated tyrosine in their sequence. The N-SH2 domain of PI3K is known to recognize a specific consensus sequences that present a methionine in position +3 in respect to the phosphotyrosine (M457 in Gab2). […]

[2] = biological target: T2, N-SH2 domain of PI3K, V22A variant (Homo sapiens, UniProt P27986, V343A); assay: Stopped-flow binding kinetics, N-SH2 V22A
T2 construct: made in house
Description: as §1, §2, §3, §4, §5

[3] = biological target: T3, N-SH2 domain of PI3K, I60V variant (Homo sapiens, UniProt P27986, I381V); assay: Stopped-flow binding kinetics, N-SH2 I60V
T3 construct: made in house
Description: as §1, §2, §3, §4, §5

[4] = biological target: T4, N-SH2 domain of PI3K, I17V variant (Homo sapiens, UniProt P27986, I338V); assay: Stopped-flow binding kinetics, N-SH2 I17V
T4 construct: made in house
Description: as §1, §2, §3, §4, §5

[5] = biological target: T5, N-SH2 domain of PI3K, T76S variant (Homo sapiens, UniProt P27986, T397S); assay: Stopped-flow binding kinetics, N-SH2 T76S
T5 construct: made in house
Description: as §1, §2, §3, §4, §5

N-SH2 domain of PI3K, WT = biological target: T6, N-SH2 domain of PI3K, WT (Homo sapiens, UniProt P27986); assay: Stopped-flow binding kinetics, N-SH2 WT
T6 construct: made in house
Description: as §1, §2, §3, §4, §5

[6] = biological target: T7, N-SH2 domain of PI3K, L51A variant (Homo sapiens, UniProt P27986, L372A); assay: Stopped-flow binding kinetics, N-SH2 L51A
T7 construct: made in house
Description: as §1, §2, §3, §4, §5

[7] = biological target: T8, N-SH2 domain of PI3K, L75A variant (Homo sapiens, UniProt P27986, L396A); assay: Stopped-flow binding kinetics, N-SH2 L75A
T8 construct: made in house
Description: as §1, §2, §3, §4, §5

[8] = biological target: T9, N-SH2 domain of PI3K, V81A variant (Homo sapiens, UniProt P27986, V402A); assay: Stopped-flow binding kinetics, N-SH2 V81A
T9 construct: made in house
Description: as §1, §2, §3, §4, §5

[9] = biological target: T10, N-SH2 domain of PI3K, A30G variant (Homo sapiens, UniProt P27986, A351G); assay: Stopped-flow binding kinetics, N-SH2 A30G
T10 construct: made in house
Description: as §1, §2, §3, §4, §5

[10] = biological target: T11, N-SH2 domain of PI3K, T50S variant (Homo sapiens, UniProt P27986, T371S); assay: Stopped-flow binding kinetics, N-SH2 T50S
T11 construct: made in house
Description: as §1, §2, §3, §4, §5

[11] = biological target: T12, N-SH2 domain of PI3K, P74A variant (Homo sapiens, UniProt P27986, P395A); assay: Stopped-flow binding kinetics, N-SH2 P74A
T12 construct: made in house
Description: as §1, §2, §3, §4, §5

[12] = biological target: T13, N-SH2 domain of PI3K, I62V variant (Homo sapiens, UniProt P27986, I383V); assay: Stopped-flow binding kinetics, N-SH2 I62V
T13 construct: made in house
Description: as §1, §2, §3, §4, §5

[13] = biological target: T14, N-SH2 domain of PI3K, V80A variant (Homo sapiens, UniProt P27986, V401A); assay: Stopped-flow binding kinetics, N-SH2 V80A
T14 construct: made in house
Description: as §1, §2, §3, §4, §5

[14] = biological target: T15, N-SH2 domain of PI3K, V101A variant (Homo sapiens, UniProt P27986, V422A); assay: Stopped-flow binding kinetics, N-SH2 V101A
T15 construct: made in house
Description: as §1, §2, §3, §4, §5

[15] = biological target: T16, N-SH2 domain of PI3K, T29S variant (Homo sapiens, UniProt P27986, T350S); assay: Stopped-flow binding kinetics, N-SH2 T29S
T16 construct: made in house
Description: as §1, §2, §3, §4, §5

[16] = biological target: T17, N-SH2 domain of PI3K, L104A variant (Homo sapiens, UniProt P27986, L425A); assay: Stopped-flow binding kinetics, N-SH2 L104A
T17 construct: made in house
Description: as §1, §2, §3, §4, §5

[17] = displacement experiment, pH 7.4, 300 mM NaCl
[18] = stopped-flow FRET, 1 μM dansylated peptide, 50 mM Hepes pH 7.4, 300 mM NaCl
[19] = stopped-flow kinetics, pH 7.4, 300 mM NaCl

T4 sequence (P27986 333-428 I338V): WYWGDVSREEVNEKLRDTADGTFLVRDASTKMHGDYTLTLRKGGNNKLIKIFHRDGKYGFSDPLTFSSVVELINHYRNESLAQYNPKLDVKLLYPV
T6 sequence (P27986 333-428 limits assumed): as the sequence (P27986 333-428 I338V) above, with V6I counted along it
T13 sequence (P27986 333-428 I383V): as the sequence (P27986 333-428 I338V) above, with V6I, I51V counted along it
T14 sequence (P27986 333-428 V401A): as the sequence (P27986 333-428 I338V) above, with V6I, V69A counted along it
T17 sequence (P27986 333-428 L425A): as the sequence (P27986 333-428 I338V) above, with V6I, L93A counted along it
T11 sequence (P27986 333-428 T371S): as the sequence (P27986 333-428 I338V) above, with V6I, T39S counted along it
T8 sequence (P27986 333-428 L396A): as the sequence (P27986 333-428 I338V) above, with V6I, L64A counted along it
T12 sequence (P27986 333-428 P395A): as the sequence (P27986 333-428 I338V) above, with V6I, P63A counted along it
T10 sequence (P27986 333-428 A351G): as the sequence (P27986 333-428 I338V) above, with V6I, A19G counted along it
T16 sequence (P27986 333-428 T350S): as the sequence (P27986 333-428 I338V) above, with V6I, T18S counted along it
T9 sequence (P27986 333-428 V402A): as the sequence (P27986 333-428 I338V) above, with V6I, V70A counted along it
T2 sequence (P27986 333-428 V343A): as the sequence (P27986 333-428 I338V) above, with V6I, V11A counted along it
T7 sequence (P27986 333-428 L372A): as the sequence (P27986 333-428 I338V) above, with V6I, L40A counted along it
T5 sequence (P27986 333-428 T397S): as the sequence (P27986 333-428 I338V) above, with V6I, T65S counted along it
T3 sequence (P27986 333-428 I381V): as the sequence (P27986 333-428 I338V) above, with V6I, I49V counted along it
T1 sequence (P27986 333-428 T354S): as the sequence (P27986 333-428 I338V) above, with V6I, T22S counted along it
T15 sequence (P27986 333-428 V422A): as the sequence (P27986 333-428 I338V) above, with V6I, V90A counted along it

CC(C)[C@H](NC(=O)[C@H](Cc1ccc(OP(=O)(O)O)cc1)NC(=O)[C@H](CC(N)=O)NC(=O)[C@H](CC(=O)O)NC(=O)[C@H](CCC(=O)O)NC(=O)[C@H](CO)NC(=O)[C@H](CC(N)=O)NC(=O)[C@@H](N)[C@@H](C)O)C(=O)N1CCC[C@H]1C(=O)N[C@@H](C)C(=O)N[C@@H](CC(N)=O)C(=O)N1CCC[C@H]1C(=O)NCC(=O)O [Gab2_448–460 M457A] (HELM PEPTIDE1{T.N.S.E.D.N.[O=C([C@H](Cc1ccc(OP(=O)(O)O)cc1)N[*:1])[*:2]].V.P.A.N.P.G}$$$$V2.0)
koff [1, 17]: 80 ± 4 s⁻¹ | kon [1, 18]: 2.06e+07 ± 2.9e+06 M⁻¹ s⁻¹ | Kd [1, 19]: 3.8 ± 0.6 µM | koff [2, 17]: 170 ± 9 s⁻¹ | kon [2, 18]: 1.77e+07 ± 2.6e+06 M⁻¹ s⁻¹ | Kd [2, 19]: 9.7 ± 1.5 µM | koff [3, 17]: 80 ± 4 s⁻¹ | kon [3, 18]: 1.52e+07 ± 1.5e+06 M⁻¹ s⁻¹ | Kd [3, 19]: 5 ± 0.6 µM | koff [4, 17]: 90 ± 5 s⁻¹ | kon [4, 18]: 2.2e+07 ± 2.3e+06 M⁻¹ s⁻¹ | Kd [4, 19]: 4.3 ± 0.5 µM | koff [5, 17]: 100 ± 5 s⁻¹ | kon [5, 18]: 1.96e+07 ± 2.6e+06 M⁻¹ s⁻¹ | Kd [5, 19]: 5 ± 0.7 µM | koff (N-SH2 domain of PI3K, WT; displacement of 1 μM complex by 50 μM non-dansylated Gab2_448–460, 50 mM Hepes pH 7.4, 300 mM NaCl): 80 ± 4 s⁻¹ | Kd (N-SH2 domain of PI3K, WT; from stopped-flow kinetics, pH 7.4, 300 mM NaCl): 3.7 ± 0.4 µM | kon (N-SH2 domain of PI3K, WT; stopped-flow FRET, 1 μM dansylated peptide vs excess N-SH2, 50 mM Hepes pH 7.4, 300 mM NaCl, slope of kobs): 2.15e+07 ± 2.4e+06 M⁻¹ s⁻¹ | koff [6, 17]: 160 ± 8 s⁻¹ | kon [6, 18]: 2.12e+07 ± 3.3e+06 M⁻¹ s⁻¹ | Kd [6, 19]: 7.6 ± 1.2 µM | koff [7, 17]: 110 ± 5 s⁻¹ | kon [7, 18]: 1.88e+07 ± 3.2e+06 M⁻¹ s⁻¹ | Kd [7, 19]: 5.7 ± 1 µM | koff [8, 17]: 90 ± 5 s⁻¹ | kon [8, 18]: 2.05e+07 ± 3.8e+06 M⁻¹ s⁻¹ | Kd [8, 19]: 4.5 ± 0.9 µM | koff [9, 17]: 90 ± 4 s⁻¹ | kon [9, 18]: 1.71e+07 ± 2.2e+06 M⁻¹ s⁻¹ | Kd [9, 19]: 5.1 ± 0.7 µM | koff [10, 17]: 140 ± 7 s⁻¹ | kon [10, 18]: 2.02e+07 ± 2e+06 M⁻¹ s⁻¹ | Kd [10, 19]: 6.8 ± 0.8 µM | koff [11, 17]: 60 ± 3 s⁻¹ | kon [11, 18]: 2.25e+07 ± 1.9e+06 M⁻¹ s⁻¹ | Kd [11, 19]: 2.6 ± 0.3 µM | koff [12, 17]: 120 ± 6 s⁻¹ | kon [12, 18]: 1.84e+07 ± 1.5e+06 M⁻¹ s⁻¹ | Kd [12, 19]: 6.7 ± 0.6 µM | koff [13, 17]: 130 ± 6 s⁻¹ | kon [13, 18]: 2.23e+07 ± 5.4e+06 M⁻¹ s⁻¹ | Kd [13, 19]: 5.6 ± 1.4 µM | koff [14, 17]: 170 ± 9 s⁻¹ | kon [14, 18]: 1.42e+07 ± 1.7e+06 M⁻¹ s⁻¹ | Kd [14, 19]: 12 ± 1 µM | koff [15, 17]: 80 ± 4 s⁻¹ | kon [15, 18]: 1.97e+07 ± 2.7e+06 M⁻¹ s⁻¹ | Kd [15, 19]: 4 ± 0.6 µM | koff [16, 17]: 110 ± 6 s⁻¹ | kon [16, 18]: 2.21e+07 ± 1.4e+06 M⁻¹ s⁻¹ | Kd [16, 19]: 5.2 ± 0.4 µM

Source: paper PMC7247818, “Demonstration of Binding Induced Structural Plasticity in a SH2 Domain” (Frontiers in Molecular Biosciences, 2020)
